From US7122662B2, “Tricyclic compound having spiro union” (Mochida Pharmaceutical Co., Ltd., priority 1999, dated 2006)
pIC50: −log10 of the molar value.

Each compound was assayed against T1, human FXa (Homo sapiens, UniProt P00742) (assay: Measurement of human FXa inhibitory action). Settings: bioassay procedure of Experimental Example 1, a); reference compounds.
T1 construct: purchased Enzyme Research Laboratories, Inc
Format: biochemical
Description: In vitro FXa inhibitory activity is measured in accordance with the method of Kettner et al. (Journal of Biological Chemistry, vol. 265, pages 18289 to 18297, 1990). To be more specific, human FXa (product of Enzyme Research Laboratories, Inc., 0.019 U/ml) is mixed with a test compound diluted with dimethylsulfoxide (DMSO) at various concentrations and a synthetic substrate S-2222 (Chromogenix AB, 0.4 mM). The mixtures are incubated at 37° C. in Tris-hydrochloric acid buffer (pH 7.5) while the absorbance at 405 nm is measured continuously. To calculate the FXa inhibitory activity of the test compound, the initial reaction velocity is compared with the value for a control containing no test compound. It should be noted that the FXa inhibitory activity of the test compound is generally indicated as IC50.

T1 sequence (P00742 235-488 limits assumed): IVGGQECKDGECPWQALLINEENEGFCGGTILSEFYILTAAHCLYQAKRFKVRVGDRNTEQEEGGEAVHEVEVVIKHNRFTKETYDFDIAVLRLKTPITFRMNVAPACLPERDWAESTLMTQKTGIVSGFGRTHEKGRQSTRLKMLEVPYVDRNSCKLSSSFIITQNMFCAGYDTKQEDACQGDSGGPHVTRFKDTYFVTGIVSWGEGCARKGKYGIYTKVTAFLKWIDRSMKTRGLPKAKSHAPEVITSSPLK
T1 sequence (P00742 41-179 partner limits assumed): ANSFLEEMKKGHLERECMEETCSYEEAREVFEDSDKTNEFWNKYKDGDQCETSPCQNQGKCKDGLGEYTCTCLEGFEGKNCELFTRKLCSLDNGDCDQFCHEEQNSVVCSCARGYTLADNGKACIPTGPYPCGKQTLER

O=C(C(CNS(=O)(=O)c1ccc2cc(Cl)ccc2c1)NCC1CCN(c2ccncc2)CC1)N1CCS(=O)(=O)CC1 (stereo not drawn) [Compound B, 4-[3-(6-chloronaphthalen-2-ylsulfoneamide)-2-[l-(4-pyridyl)piperidin-4-ylmethyl]aminopropionyl]-1,1-dioxothiomorpholine] and CCOC(=O)[C@H]1CN(S(=O)(=O)c2ccc3cc(Cl)ccc3c2)CC(=O)N1CC1CCN(c2ccncc2)CC1 [Compound C, (R)-4-(6-chloronaphthalen-2-ylsulfonyl)-6-ethoxycarbonyl-l-[1-(4-pyridyl)piperidin-4-ylmethyl]piperazin-2-one] are within 0.2 log units of each other in pIC50: 4.51 for the first, 4.55 for the second.

Each compound was assayed on human plasma (assay: Measurement of intrinsic coagulation time (APTT) in vitro). Settings: not given.
Format: biochemical
Description: Activated partial thromboplastin time (APTT) is measured in the presence of the test compounds diluted at various concentrations. A test compound diluted with DMSO at various concentrations is mixed with human plasma and APTT reagent. The mixture is incubated at 37° C. for 2 minutes; calcium chloride (25 mM) is added to the mixture; and the coagulation time is thereafter measured. It should be noted that the anticoagulant activity of the test compound is described in terms of the concentration required to double the coagulation time for the case where no test compound is added.

Compared with COCCOC(=O)C12CN(S(=O)(=O)c3ccc4cc(Cl)ccc4c3)CC(=O)N1CC1(CCN(c3ccncc3)CC1)O2 (single isomer, unassigned; (-)) [Example 42, (−)-1,4-diaza-4-(6-chloronaphthalen-2-ylsulfonyl)-6-(2-methoxyethoxycarbonyl)-7-oxa-1′-(4-pyridyl)spiro[bicyclo[4.3.0]nonane-8,4′-piperidin]-2-one], CC(C)OC(=O)C12CN(S(=O)(=O)c3ccc4cc(Cl)ccc4c3)CC(=O)N1CC1(CCN(c3ccncc3)CC1)O2 (stereo not drawn) [Example 29, 1,4-diaza-4-(6-chloronaphthalen-2-ylsulfonyl)-6-(isopropoxycarbonyl)-7-oxa-1′-(4-pyridyl)spiro[bicyclo[4.3.0]nonane-8,4′-piperidin]-2-one] is 4.5-fold higher in “Concentration required to double coagulation time” value (shortened to “Concentration required”): 0.20 µM for the first, 0.90 µM for the second.

Going from O=C(O)COCC12CN(S(=O)(=O)c3ccc4cc(Cl)ccc4c3)CC(=O)N1CC1(CCN(c3ccncc3)CC1)O2 (stereo not drawn) [Example 5, 1,4-diaza-4-(6-chloronaphthalen-2-ylsulfonyl)-6-(carboxymethoxymethyl)-7-oxa-1′-(4-pyridyl)spiro[bicyclo[4.3.0]nonane-8,4′-piperidin]-2-one] to NCC12CN(S(=O)(=O)c3ccc4cc(Cl)ccc4c3)CC(=O)N1CC1(CCN(c3ccncc3)CC1)O2 (stereo not drawn) [Example 58, 6-(aminomethyl)-1,4-diaza-4-(6-chloronaphthalen-2-ylsulfonyl)-7-oxa-1′-(4-pyridyl)spiro[bicyclo[4.3.0]nonane-8,4′-piperidin]-2-one], the “Concentration required” value falls from 0.43 µM to 0.18 µM (2.4-fold).

Going from COCC12CN(S(=O)(=O)c3ccc4ccccc4c3)CC(=O)N1CC1(CCN(c3ccncc3)CC1)O2 (stereo not drawn) [Example 6, 1,4-diaza-6-(methoxymethyl)-4-(2-naphthalenesulfonyl)-7-oxa-1′-(4-pyridyl)spiro[bicyclo[4.3.0]nonane-8,4′-piperidin]-2-one] to CC12CN(S(=O)(=O)c3ccc4cc(Cl)ccc4c3)CC(=O)N1CC1(CCN(c3ccncc3)CC1)O2 (stereo not drawn) [Example 69, 1,4-diaza-4-(6-chloronaphthalen-2-ylsulfonyl)-6-methyl-7-oxa-1′-(4-pyridyl)spiro[bicyclo[4.3.0]nonane-8,4′-piperidin]-2-one], the “Concentration required” value falls from 0.99 µM to 0.36 µM (2.8-fold).

O=C1CN(S(=O)(=O)c2ccc3cc(Cl)ccc3c2)CC2OC3(CCN(c4ccncc4)CC3)CN12 (stereo not drawn) [Example 9, 1,4-diaza-4-(6-chloronaphthalen-2-ylsulfonyl)-7-oxa-1′-(4-pyridyl)spiro[bicyclo[4.3.0]nonane-8,4′-piperidin]-2-one] and O=C1CN(S(=O)(=O)C=Cc2ccc(Cl)s2)CC2OC3(CCN(c4ccncc4)CC3)CN12 (stereo not drawn) [Example 600, 1,4-diaza-4-[2-(5-chlorothiophen-2-yl)ethenesulfonyl]-7-oxa-1′-(4-pyridyl)spiro[bicyclo[4.3.0]nonane-8,4′-piperidin]-2-one] are within 1.5-fold of each other in “Concentration required” value: 0.29 µM for the first, 0.22 µM for the second.

Going from COCC12CN(S(=O)(=O)c3ccc4cc(Cl)ccc4c3)CC(=O)N1CC1(CCN(c3cc[n+](C)cc3)CC1)O2.Cc1ccc(S(=O)(=O)[O-])cc1 (stereo not drawn) [Example 23, 4-[1,4-diaza-4-(6-chloronaphthalen-2-ylsulfonyl)-6-(methoxymethyl)-7-oxa-2-oxospiro[bicyclo[4.3.0]nonane-8,4′-piperidin-1′-yl]]-1-methylpyridinium p-toluenesulfonate] to COCC12CN(S(=O)(=O)c3cc4ccc(Cl)cc4s3)CC(=O)N1CC1(CCN(c3ccncc3)CC1)O2 (stereo not drawn) [Example 399, 1,4-diaza-4-(6-chlorobenzo[b]thiophen-2-ylsulfonyl)-6-(methoxymethyl)-7-oxa-1′-(4-pyridyl)spiro[bicyclo[4.3.0]nonane-8,4′-piperidin]-2-one], the “Concentration required” value falls from 0.62 µM to 0.18 µM (3.4-fold).

O=C1CN(S(=O)(=O)c2cc3ccc(Cl)cc3s2)CC2NC3(CCN(c4ccncc4)CC3)CN12 (stereo not drawn) [Example 275, 1,4,7-triaza-4-(6-chlorobenzo[b]thiophen-2-ylsulfonyl)-1′-(4-pyridyl)spiro[bicyclo[4.3.0]nonane-8,4′-piperidin]-2-one] and COCC12CN(S(=O)(=O)c3cc4ccc(Cl)cc4s3)CC(=O)N1CC1(CCN(c3ccncc3)CC1)N2 (stereo not drawn) [Example 461, 1,4,7-triaza-4-(6-chlorobenzo[b]thiophen-2-ylsulfonyl)-6-(methoxymethyl)-1′-(4-pyridyl)spiro[bicyclo[4.3.0]nonane-8,4′-piperidin]-2-one] are within 1.5-fold of each other in “Concentration required” value: 0.17 µM for the first, 0.16 µM for the second.

COCC12CN(S(=O)(=O)C3=Cc4ccc(Cl)cc4OC3)CC(=O)N1CC1(CCN(c3ccncc3)CC1)O2 (stereo not drawn) [Example 388, 1,4-diaza-4-(7-chloro-2H-benzopyran-3-sulfonyl)-6-(methoxymethyl)-7-oxa-1′-(4-pyridyl)spiro[bicyclo[4.3.0]nonane-8,4′-piperidin]-2-one] and COCC12CN(S(=O)(=O)c3cc4cc(Cl)ccc4o3)CC(=O)N1CC1(CCN(c3ccncc3)CC1)N2 (stereo not drawn) [Example 471, 1,4,7-triaza-4-(5-chlorobenzo[b]furan-2-ylsulfonyl)-6-(methoxymethyl)-1′-(4-pyridyl)spiro[bicyclo[4.3.0]nonane-8,4′-piperidin]-2-one] are within 1.5-fold of each other in “Concentration required” value: 0.22 µM for the first, 0.27 µM for the second.

Compared with COCC12CN(S(=O)(=O)c3cc4cc(Cl)ccc4o3)CC(=O)N1CC1(CCN(c3ccncc3)CC1)N2C (stereo not drawn) [Example 533, 1,4,7-triaza-4-(5-chlorobenzo[b]furan-2-ylsulfonyl)-6-(methoxymethyl)-7-methyl-1′-(4-pyridyl)spiro[bicyclo[4.3.0]nonane-8,4′-piperidin]-2-one], COCC12CN(S(=O)(=O)C=Cc3ccc(Cl)s3)CC(=O)N1CC1(CCN(c3ccncc3)CC1)N2C (stereo not drawn) [Example 740, 1,4,7-triaza-4-[2-(5-chlorothiophen-2-yl)ethenesulfonyl]-6-(methoxymethyl)-7-methyl-1′-(4-pyridyl)spiro[bicyclo[4.3.0]nonane-8,4′-piperidin]-2-one] is 1.9-fold lower in “Concentration required” value: 0.35 µM for the first, 0.18 µM for the second.
